Assay results from patent publication US6599927B2, “Use of an H+, K+-ATPase inhibitor in the treatment of Widal's Syndrome” (AstraZeneca AB, priority 1996, dated 2003).
Entries after “also recorded” stand apart in the source; their conditions may differ.

Test system: nasal polyps
Experiment: Two week treatment of nine patients with omeprazole, intranasal budesonide and oral deflazacort (Examples 2 to 10)
Type: in vivo, human
Conditions: two weeks, 20 mg omeprazole, 100 μg intranasal budesonide, 3 to 15 mg oral deflazacort
Procedure: Nine patients, each with the conditions shown in the following Table 1, were treated during a two week period. The treatment consisted of 20 mg of omeprazole, 100 μg of intranasal budesonide and 3 to 15 mg of oral deflazacort (deflazacort was used in such a small quantity to ensure the patients' compliance).

COc1ccc2[nH]c([S+]([O-])Cc3ncc(C)c(OC)c3C)nc2c1 (stereo not drawn) [omeprazole]
Result (patient with Nasal Polyposis and aspirin intolerance (Example 9)): Positive effect
Result (patients with Nasal Polyposis (Examples 5-8)): Positive effect; also recorded: Long term benefit
Result (patients with Widal's Syndrome (Examples 2-4)): Temporary benefit; also recorded: Positive effect
